In patent US10357477B2, “Anticancer compounds” (REGENTS OF THE UNIVERSITY OF MINNESOTA, priority 2016, dated 2019):
Values after ≈ are worked out from the molar mass of the structure shown.

Assays:
[1] = Plasma stability assay, human plasma; assay type: in vitro ADME; conditions: 37° C.
Experimental: (§1) The plasma stability assay was performed in triplicate by incubating a compound in normal mouse and human plasma at 37° C. At 0, 1, 3, 6, and 24 h, aliquots of the plasma mixture were taken and quenched with 3 volumes of acetonitrile containing an appropriate internal standard. The samples were then vortexed and centrifuged at 14,000 rpm for 5 min. The supernatants were collected and analyzed by LC-MS/MS to determine the remaining percentage at various time points.
(§2) Quantification and analysis of compounds in biological samples were carried out on an AB Sciex QTrap 5500 mass spectrometer coupled with an Agilent 1260 Infinity HPLC. The chromatographic separation of compounds was achieved using a Phenomenex Kinetex C18 column (50×2.1 mm, 2.6 μm), and MS/MS analysis was conducted using an ESI ion source with MRM detection. The MS/MS detection parameters including declustering potential (DP), entrance potential (EP), collision energy (CE), and collision cell exit potential (CXP) were optimized for each compound.

[2] = Microsomal stability assay, mouse liver microsomes; assay type: in vitro ADME; conditions: pH 7.4; mouse liver microsomes 0.5 mg/mL, 1 mM NADPH, 1 μM compound; read-out: Microsomal Stability t1/2 Mouse
Experimental: (§3) The in vitro microsomal stability assay was conducted in triplicate in mouse and human liver microsomal systems. In a typical incubation, a compound (typically 1 μM final concentration) was spiked into the reaction mixture containing 0.5 mg/mL of liver microsomal protein and 1 mM of NADPH in 0.1 M potassium phosphate buffer (pH 7.4) at 37° C. At various time points, 1 volume of reaction aliquot was taken and quenched with 3 volumes of acetonitrile with an appropriate internal standard. The samples were then vortexed and centrifuged at 14,000 rpm for 5 min. The supernatants were collected and analyzed by LC-MS/MS to determine the in vitro metabolic half-life (t1/2) and intrinsic clearance (CLint). Verapamil was used as a positive control.
as §2

[3] = Caco-2 permeability assay; assay type: in vitro ADME; conditions: human, pH 7.4; for Papp A→B at 80 min: apical to basolateral; for Papp B→A at 80 min: basolateral to apical
Experimental: Cell Culture. The human colon adenocarcinoma cell line Caco-2 was purchased from ATCC (American Type Culture Collection, Manassas, Va.), and was cultured in a humidified atmosphere of 5% CO2 at 37° C. Caco-2 cells were cultured in DMEM with 10% FBS, 1% NEAA, 1% GlutaMax and 1% penicillin and streptomycin solution. The culture medium was changed every other day during cell growth and differentiation. On achieving 80-90% confluence, the cells were rinsed with pre-warm DPBS (pH 7.4) and split using trypsin. The cells were then seeded on membranes of Millipore Millicell-24 cell culture device. The transepithelial electrical resistance (TEER) were assessed to reflect membrane integrity using a Millicells® ERS-2 (Millipore, USA). The Caco-2 cell monolayers were used for transport experiments on day 21 post-seeding with TEER values >500 Ω·cm2. Bidirectional Transport Experiments. Before the transport experiments, the cell monolayer was washed three times with HBSS. Then, the plates were incubated in fresh permeability assay buffer (HBSS containing 10 mM glucose and 20 mM HEPES, pH 7.4) at 37° C. The experiments were conducted by spiking test compounds to either the apical (AP, 0.4 mL) or basolateral side (BL, 0.8 mL), while the receiving chamber contained the corresponding volume of pre-warmed permeability assay buffer. Every experiment was repeated in duplicate, and the plates were incubated in an orbital shaker at 37° C., 50 rpm/min. To assess the drug transport, at the incubation time of 20, 40, 60 and 80 min, aliquot was removed and was immediately replenished with an equal volume of permeability assay buffer. The samples were then subjected to LC/MS/MS analysis. The apparent permeability coefficient was indicated by the absorption rate constant Papp. It could be calculated as PBA (measured in BL to AP direction) or PAB (measured in AP to BL direction), using the equation of Papp=(dQ/dt)/(A×C0). dQ/dt is the rate at which the compound appears in the receiver chamber (nmol/s), A is the surface area of the filter membrane (0.7 cm2) and C0 is the initial concentration in the donor chamber (μM). Efflux ratio (ER) was calculated by the equation of ER=PBA/PAB, where PBA is the Papp value measured in BL to AP direction, and PAB is the Papp value measured in AP to BL direction.

[4] = Plasma stability assay, mouse plasma; assay type: in vitro ADME; conditions: 37° C.
Experimental: as §1, §2

[5] = test system: MCF10A cells (normal human mammary cells); assay: Cell viability assay (MTT) in MCF10A cells; assay type: cell-based; conditions: MCF-10A, 72 h
Experimental: MCF10A cells are maintained in minimum essential medium (MEM) (Invitrogen 11095) supplemented with 10% FBS (Invitrogen 16000), 1% 10× non-essential amino acids (NEAA) (Invitrogen 11140), 1% Penicillin/Streptomycin (Invitrogen 15140), 1% GlutaMAX (Invitrogen 35050-061), 20 ng/mL EGF, […] hydrocortisone, 100 ng/mL cholera toxin, 10 μg/mL insulin.
Cells were plated in 96-well plates at 25×10^4 cells/ml. After 24 hours, compounds were added at 9, 3× dilutions in triplicate from 100 uM final concentration in the appropriate growth media. Plates were incubated for 72 hours at 37° C. in a 5% CO2/95% air humidified atmosphere after which time the media was removed and MTT was added in RPMI phenol red free media. The MTT was removed after 3 hours and formazan crystals were solubilized with 200 μL of isopropanol. Plates were read on a Molecular Devices SpectraMax i3 spectrophotometer at 570 nm for formazan and 690 nm for background subtraction. EC50 values were calculated by fitting the data in GraphPad Prism software.

[6] = Microsomal stability assay, human liver microsomes; assay type: in vitro ADME; conditions: pH 7.4; human liver microsomes 0.5 mg/mL, 1 mM NADPH, 1 μM compound; read-out: Microsomal Stability t1/2 Human
Experimental: as §3, §2

[7] = test system: MIA PaCa-2 cells; assay: Cell viability assay (MTT) in MIA PaCa-2 cells; assay type: cell-based; conditions: Homo sapiens, antiproliferative activity, 72 h
In short: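 MIA PaCa-2 cells exposed 72 h at 37° C to 2-fold serial compound dilutions from 100 μM final, 0.5% DMSO, in triplicate. Viability by MTT (3 h), formazan read at 570 nm minus 650 nm; EC50 from curve fit.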

[8] = Thermodynamic solubility assay; assay type: physicochemical; conditions: aqueous buffer, thermodynamic from solid, DPBS pH=7.4, 48 h, ambient temperature
Experimental: Briefly, a saturated solution was made by adding DPBS to the solid compound. The mixture was shaken at 200 rpm for 48 h in a MaxQ 6000 orbital shaker at ambient temperature to allow equilibrium between the solid and dissolved compound. The suspension was then filtered through a 0.45 μm PVDF syringe filter and the filtrate was collected for analysis using UV spectrometry (SpectraMax M5e, Molecular Devices) at λ=240 nm.

In the case of `CNC(=O)c1cc(Cn2nc(C)c(NC(=O)c3ccc(COc4ccc(C(F)(F)F)cc4)cc3)c2C)ccn1` [Compound E2a, 4-((3,5-Dimethyl-4-(4-((4-(trifluoromethyl)phenoxy)methyl)benzamido)-1H-pyrazol-1-yl)methyl)-N-methylpicolinamide], the “Plasma Stability (% remaining, 6 h/24 h) Human” value ([1]; 24 h) is reported as “—/98%”, the half-life at 1 μM [2] is reported as 64 min and the Papp A→B at 80 min [3] is reported as 5.02 ×10⁻⁶ cm/s. The Papp B→A at 80 min [3] was 5.69 ×10⁻⁶ cm/s, the “Plasma Stability (% remaining, 6 h/24 h) Mouse” value ([4]; 24 h) was “—/91%” and the EC50 [5] was 8300 nM. It also gave a half-life at 1 μM [6] of 112 min and an EC50 [7] of 850 nM.

With `CC(=O)Nc1cccc(Cn2nc(C)c(NC(=O)c3ccc(COc4ccc(C(F)(F)F)cc4C)cc3)c2C)c1` [Compound D12, N-(1-(3-Acetamidobenzyl)-3,5-dimethyl-1H-pyrazol-4-yl)-4-((2-methyl-4-(trifluoromethyl)phenoxy)methyl)benzamide] the “Plasma Stability (% remaining, 6 h/24 h) Human” value ([1]; 6 h) was 92%, the “Plasma Stability (% remaining, 6 h/24 h) Human” value ([1]; 24 h) was 95% and the half-life at 1 μM [2] was 9.7 min. For the same molecule, the “Plasma Stability (% remaining, 6 h/24 h) Mouse” value ([4]; 6 h) was 1.6%, the “Plasma Stability (% remaining, 6 h/24 h) Mouse” value ([4]; 24 h) was 0.1% and the EC50 [5] was 6600 nM. For the same molecule, the half-life at 1 μM [6] was 14 min and the EC50 [7] was 1100 nM.

For `CNC(=O)c1cc(Cn2nc(C)c(NC(=O)c3ccc(COc4ccc(C(F)(F)F)cc4C)cc3)c2C)ccn1` [Compound E2b, 4-((3,5-Dimethyl-4-(4-((2-methyl-4-(trifluoromethyl)phenoxy)methyl)benzamido)-1H-pyrazol-1-yl)methyl)-N-methylpicolinamide], the “Plasma Stability (% remaining, 6 h/24 h) Human” value ([1]; 24 h) was “—/100%”, the half-life at 1 μM [2] was 89 min and the Papp A→B at 80 min [3] was 8.34 ×10⁻⁶ cm/s. The Papp B→A at 80 min [3] was 5.96 ×10⁻⁶ cm/s, the “Plasma Stability (% remaining, 6 h/24 h) Mouse” value ([4]; 24 h) was “—/84%” and the solubility at 48 h [8] was 211 ± 5 µM (≈ 116 µg/mL). For the same molecule, the EC50 [5] was 7400 nM, the half-life at 1 μM [6] was 89 min and the EC50 [7] was 330 nM.

With `CC(=O)Nc1cccc(Cn2nc(C)c(NC(=O)c3ccc(COc4ccc(C(F)(F)F)cc4)cc3)c2C)c1` [Compound D11, N-(1-(3-Acetamidobenzyl)-3,5-dimethyl-1H-pyrazol-4-yl)-4-((4-(trifluoromethyl)phenoxy)methyl)benzamide] the “Plasma Stability (% remaining, 6 h/24 h) Human” value ([1]; 6 h) was 96%, the “Plasma Stability (% remaining, 6 h/24 h) Human” value ([1]; 24 h) was 94% and the half-life at 1 μM [2] was 7.4 min. The “Plasma Stability (% remaining, 6 h/24 h) Mouse” value ([4]; 6 h) was 2.1%, the “Plasma Stability (% remaining, 6 h/24 h) Mouse” value ([4]; 24 h) was 0.1% and the EC50 [5] was 8600 nM. It also gave a half-life at 1 μM [6] of 8.3 min and an EC50 [7] of 870 nM.

For `CNC(=O)c1cccc(Cn2nc(C)c(NC(=O)c3ccc(COc4ccc(C(F)(F)F)cc4C)cc3)c2C)c1` [Compound D10, 3-((3,5-Dimethyl-4-(4-((2-methyl-4-(trifluoromethyl)phenoxy)-methyl)benzamido)-1H-pyrazol-1-yl)methyl)-N-methylbenzamide], the “Plasma Stability (% remaining, 6 h/24 h) Human” value ([1]; 6 h) was 98%, the “Plasma Stability (% remaining, 6 h/24 h) Human” value ([1]; 24 h) was 100% and the half-life at 1 μM [2] was 53 min. The Papp A→B at 80 min [3] was 3.72 ×10⁻⁶ cm/s, the Papp B→A at 80 min [3] was 11.2 ×10⁻⁶ cm/s and the “Plasma Stability (% remaining, 6 h/24 h) Mouse” value ([4]; 6 h) was 88%. The “Plasma Stability (% remaining, 6 h/24 h) Mouse” value ([4]; 24 h) was 93%, the solubility at 48 h [8] was 166 ± 2 µM (≈ 91.4 µg/mL) and the EC50 [5] was 4800 nM. For the same molecule, the half-life at 1 μM [6] was 53 min and the EC50 [7] was 620 nM.

With `CNC(=O)c1cccc(Cn2nc(C)c(NC(=O)c3ccc(COc4ccc(C(F)(F)F)cc4)cc3)c2C)n1` [Compound E1a, 6-((3,5-Dimethyl-4-(4-((4-(trifluoromethyl)phenoxy)methyl)-benzamido)-1H-pyrazol-1-yl)methyl)-N-methylpicolinamide] the “Plasma Stability (% remaining, 6 h/24 h) Human” value ([1]; 24 h) was “—/100%”, the half-life at 1 μM [2] was 65 min and the Papp A→B at 80 min [3] was 24.5 ×10⁻⁶ cm/s. The Papp B→A at 80 min [3] was 21 ×10⁻⁶ cm/s, the “Plasma Stability (% remaining, 6 h/24 h) Mouse” value ([4]; 24 h) was “—/99%” and the EC50 [5] was 7800 nM. For the same molecule, the half-life at 1 μM [6] was 47 min and the EC50 [7] was 480 nM.
